For one experiment, the target named is GCN2 kinase (Homo sapiens (Human), UniProt Q9P2K8). The experiment is described as follows: Biochemical assay for GCN2 (TR-FRET kinase activity assay). The following applies: 1 mM ATP, 3-hour incubation. The procedure: Activity of GCN2 kinase was determined using a TR-FRET kinase activity assay (e.g. Riddle et al. Analytical Biochemistry (2006) 356(1) 108-116). Assays were conducted in 384-well plates (13 μL assay volume) using 2 nM GCN2 (Carna Biosciences), 130 nM GFP-EIf2α (Invitrogen), 0.2 mg/mL E. coli tRNA (sigma) and 1 mM ATP in kinase buffer (Invitrogen). Inhibition of GCN2 was measured by adding serial diluted test compound (final assay concentration of 0.5% DMSO) followed by a 3-hour incubation. Tb-peIF2α (pSer52) antibody (Invitrogen) (2 nM final assay concentration) in kinase buffer containing ETDA (final assay concentration of 20 mM) was added. After a 60 min incubation at room temperature, TR-FRET was monitored using an excitation wavelength of 340 nm and emission wavelengths of 490 nm and 520 nm. The emission ratio (520/490) at each compound concentration of was converted to percent inhibition using controls (i.e. reaction with no test compound and reaction with a known inhibitor) and IC50 values were calculated by fitting a four-parameter sigmoidal curve to the data using Prism (GraphPad software).
GCN2 kinase, sequence (Q9P2K8 whole entry): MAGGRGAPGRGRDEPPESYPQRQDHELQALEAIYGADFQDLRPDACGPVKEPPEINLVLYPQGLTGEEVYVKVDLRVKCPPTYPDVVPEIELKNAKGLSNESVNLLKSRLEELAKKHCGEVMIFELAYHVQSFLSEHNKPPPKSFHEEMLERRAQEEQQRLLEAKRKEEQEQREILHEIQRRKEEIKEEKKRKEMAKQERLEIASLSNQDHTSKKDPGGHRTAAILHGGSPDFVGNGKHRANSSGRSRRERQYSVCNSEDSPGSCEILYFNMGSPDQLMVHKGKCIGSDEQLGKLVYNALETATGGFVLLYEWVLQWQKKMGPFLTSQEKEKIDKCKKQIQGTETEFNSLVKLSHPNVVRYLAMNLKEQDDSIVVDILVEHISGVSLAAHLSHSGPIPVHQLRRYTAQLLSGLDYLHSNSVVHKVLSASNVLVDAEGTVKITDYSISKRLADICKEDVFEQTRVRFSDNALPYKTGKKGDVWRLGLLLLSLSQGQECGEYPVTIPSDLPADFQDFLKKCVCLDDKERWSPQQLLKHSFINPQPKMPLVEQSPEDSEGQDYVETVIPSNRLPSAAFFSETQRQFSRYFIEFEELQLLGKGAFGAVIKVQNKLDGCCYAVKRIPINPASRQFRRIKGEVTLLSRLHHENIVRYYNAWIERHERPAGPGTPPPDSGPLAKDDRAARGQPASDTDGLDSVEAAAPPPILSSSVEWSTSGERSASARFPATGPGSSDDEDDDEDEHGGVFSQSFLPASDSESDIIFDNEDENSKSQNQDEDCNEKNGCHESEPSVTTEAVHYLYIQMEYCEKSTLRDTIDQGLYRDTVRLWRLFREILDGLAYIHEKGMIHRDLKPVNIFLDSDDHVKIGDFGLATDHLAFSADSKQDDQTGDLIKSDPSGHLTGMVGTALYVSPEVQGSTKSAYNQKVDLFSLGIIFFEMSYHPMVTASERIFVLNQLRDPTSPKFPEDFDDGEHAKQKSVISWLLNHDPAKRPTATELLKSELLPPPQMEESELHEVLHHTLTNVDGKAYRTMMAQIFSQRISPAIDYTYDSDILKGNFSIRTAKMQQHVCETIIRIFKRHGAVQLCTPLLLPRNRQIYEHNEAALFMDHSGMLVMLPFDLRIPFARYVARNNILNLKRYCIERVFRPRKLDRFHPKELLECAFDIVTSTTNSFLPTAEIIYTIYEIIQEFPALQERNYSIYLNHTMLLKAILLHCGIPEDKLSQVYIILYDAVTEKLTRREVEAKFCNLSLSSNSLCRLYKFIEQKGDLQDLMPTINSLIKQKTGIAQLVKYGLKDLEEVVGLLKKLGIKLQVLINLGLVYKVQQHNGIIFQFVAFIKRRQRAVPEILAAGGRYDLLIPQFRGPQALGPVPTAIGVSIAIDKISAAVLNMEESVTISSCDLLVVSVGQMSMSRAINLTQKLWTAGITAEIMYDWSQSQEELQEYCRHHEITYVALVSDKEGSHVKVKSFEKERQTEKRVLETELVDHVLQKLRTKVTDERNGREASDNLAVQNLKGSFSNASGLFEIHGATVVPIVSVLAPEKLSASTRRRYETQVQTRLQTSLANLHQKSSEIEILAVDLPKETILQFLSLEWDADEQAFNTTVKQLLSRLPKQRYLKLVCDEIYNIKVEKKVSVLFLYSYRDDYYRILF

The target in another experiment is PERK kinase (Homo sapiens (Human), UniProt Q9NZJ5). The experiment is described as follows: Biochemical assay for PERK (coupled pyruvate kinase/lactate dehydrogenase assay). Conditions: 1 mM ATP, rate from 2-3 h time frame. On the procedure:
Activity of PERK kinase was determined spectroscopically using a coupled pyruvate kinase/lactate dehydrogenase assay that continuously monitors the ATP hydrolysis-dependent oxidation of NADH (e.g., Schindler et al. Science (2000) 289: 1938-1942). Assays were conducted in 384-well plates (100 μL final volume) using 10 nM PERK (from Beryllium), 0.25 mg/mL Myelin Basic Protein substrate, 1.5 units pyruvate kinase, 2.1 units lactate dehydrogenase, 1 mM phosphoenol pyruvate, 0.28 mM NADH and 1 mM ATP in assay buffer (100 mM Tris, pH 7.5, 15 mM MgCl2, 0.5 mM DTT, 0.004% (w/v) BSA, and 0.004% Triton X-100). Inhibition of PERK was measured by adding serial diluted test compound (final assay concentration of 1% DMSO). A decrease in absorption at 340 nm was monitored continuously for 6 hours at 30° C. on a multi-mode microplate reader (BioTek). The reaction rate was calculated using the 2-3 h time frame. The reaction rate at each concentration of compound was converted to percent inhibition using controls (i.e. reaction with no test compound and reaction with a known inhibitor) and IC50 values were calculated using software routines in Prism (GraphPad software).

For the next experiment, the system named is CCRF-CEM leukemia cells. The experiment is described as follows: CCRF-CEM ASNase cell proliferation assay, phenotypic assay for cellular inhibition of GCN2. Format: cell-based. The following applies: Homo sapiens; ASNase treated CCRF-CEM cells, 1 mU/mL ASNase, 72 h. The procedure: CCRF-CEM leukemia cells (catalog #CCL-116) were obtained from the American Type Culture Collect (ATTC, Manassas, VA). Cells were grown in RPMI-1640 medium supplemented with 10% heat-inactivated fetal bovine serum (Invitrogen, Carlsbad, CA) and 1% Penicillin/Streptomycin/L-Glutamine at 37° C., 5% CO2, and 95% humidity. Cells were expanded until reaching one million cells per mL at which time they are subcultured or harvested for assay use. Ten thousand cells per well in 200 μL RPMI-1640 supplemented with 10% heat-inactivated fetal bovine serum and 1% Penicillin/Streptomycin were dispensed into a 96-well black clear bottom plate. A serial dilution of test compound and 1 mU/mL ASNase was added in triplicate and plates were incubated for 72 h at 37° C., 5% CO2, and 95% humidity. At the end of the incubation, 40 μL of a […] solution of resazurin (Sigma, St. Louis, MO) in PBS was added to each well of the plate and plates were incubated for an additional 6 h at 37° C., 5% CO2, and 95% humidity. Plates were read on a Synergy2 or equivalent reader (Biotek, Winooski VT) using an excitation of 540 nm and an emission of 600 nm. Data was analyzed using GraphPad Prism software (GraphPad, San Diego, CA) to calculate IC50 values.

The subject of experiment [1] is ATF4 in CCRF-CEM leukemia cells (PERK). The experiment is described as follows: CCRF-CEM TG ATF4 ELISA, phenotypic assay for cellular inhibition of PERK preactivated by thapsigargin. Format: cell-based. The following applies: Homo sapiens; Thapsigargin (1 μM) stimulated CCRF-CEM cells. The procedure: CCRF-CEM leukemia cells (catalog #CCL-116) were obtained from the American Type Culture Collection (ATTC, Manassas, VA). Briefly, cells were grown in RPMI-1640 medium supplemented with 10% heat-inactivated fetal bovine serum (Invitrogen, Carlsbad, CA) and 1% Penicillin/Streptomycin/L-Glutamine at 37° C., 5% CO2, and 95% humidity. Cells were expanded until reaching one million cells per mL at which time they were subcultured or harvested for assay use. One million five hundred thousand cells per well in 1 mL complete growth medium were dispensed into 12-well plates and incubated overnight. A serial dilution of test compound was added and cells were incubated at 37° C., 5% CO2, and 95% for three hours, then 1 μM thapsigargin was added and cells were incubated for an additional hour at 37° C., 5% CO2, and 95%. Cells were lysed then ATF4 levels were measured using an ELISA assay (Proteintech, Rosemont, IL). Absorbance was measured at 450 nm and 544 nM using a Synergy2 or equivalent reader (Biotek, Winooski VT). Data was analyzed using PRISM software (Graphpad, San Diego, CA) to calculate IC50 values.
In general terms: An ELISA detects its analyte on a solid surface through an enzyme-linked reagent.

One may read the IC50 as the midpoint of a concentration-inhibition curve.

PERK kinase, sequence (Q9NZJ5 other isoform, or with tags, fused parts or gaps): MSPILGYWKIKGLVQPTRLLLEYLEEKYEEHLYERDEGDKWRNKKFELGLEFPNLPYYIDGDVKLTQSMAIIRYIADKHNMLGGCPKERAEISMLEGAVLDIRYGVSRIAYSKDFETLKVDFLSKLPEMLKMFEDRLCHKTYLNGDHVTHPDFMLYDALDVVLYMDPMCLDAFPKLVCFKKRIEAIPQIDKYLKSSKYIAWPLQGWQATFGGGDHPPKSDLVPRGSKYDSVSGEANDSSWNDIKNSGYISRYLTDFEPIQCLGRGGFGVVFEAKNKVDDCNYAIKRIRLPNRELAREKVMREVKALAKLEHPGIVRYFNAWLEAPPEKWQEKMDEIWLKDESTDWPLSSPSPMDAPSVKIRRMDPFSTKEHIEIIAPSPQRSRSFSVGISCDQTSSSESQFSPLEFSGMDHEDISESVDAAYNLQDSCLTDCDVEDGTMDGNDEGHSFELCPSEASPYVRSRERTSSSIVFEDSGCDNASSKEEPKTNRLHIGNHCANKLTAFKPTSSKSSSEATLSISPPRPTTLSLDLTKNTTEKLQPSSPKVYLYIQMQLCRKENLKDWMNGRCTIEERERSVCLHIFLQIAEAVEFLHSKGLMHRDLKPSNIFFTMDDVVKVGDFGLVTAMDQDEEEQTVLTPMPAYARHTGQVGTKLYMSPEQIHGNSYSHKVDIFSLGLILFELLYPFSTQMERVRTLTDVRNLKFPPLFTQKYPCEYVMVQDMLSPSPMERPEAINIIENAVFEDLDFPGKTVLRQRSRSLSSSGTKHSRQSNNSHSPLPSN

With `CNc1ncc2cc(-c3cccc(NS(=O)(=O)c4cc(Cl)cnc4OC)c3F)c(OC)cc2n1` [Example 159], the IC50 against GCN2 kinase is not above 100 nM; at PERK kinase, not above 100 nM; in the experiment with CCRF-CEM leukemia cells, not above 100 nM; in experiment [1], 500 to 1000 nM.

Regarding `CNc1cnc(OC)c(S(=O)(=O)Nc2cccc(-c3cc4cnc(NC)cc4nc3C)c2F)c1` [Example 162], the figures for the 50% inhibitory concentration (IC50) against GCN2 kinase, at PERK kinase and with CCRF-CEM leukemia cells were not above 100 nM, 100 to 500 nM and not above 100 nM, respectively.

As to `CNc1ncc2cc(-c3cccc(NS(=O)(=O)c4cc(F)cc(CO)c4Cl)c3F)c(NC)nc2n1` [Example 177], the half-maximal inhibitory concentration (IC50) against GCN2 kinase was not above 100 nM; against PERK kinase it was 100 to 500 nM; in the experiment on CCRF-CEM leukemia cells, not above 100 nM; in experiment [1], 100 to 500 nM.

For the compound `COc1cc2nc(N)ncc2cc1-c1cccc(NS(=O)(=O)c2cc(Cl)cc(CO)c2Cl)c1F` [Example 167], the IC50 (against GCN2 kinase; against PERK kinase; in the experiment with CCRF-CEM leukemia cells; in experiment [1]) was not above 100 nM each time.

Regarding `CNc1ncc2cc(-c3cccc(NS(=O)(=O)c4cc(Cl)cc(CO)c4F)c3F)c(NC)nc2n1` [Example 176], the IC50 is not above 100 nM against GCN2 kinase, not above 100 nM against PERK kinase, not above 100 nM in the experiment with CCRF-CEM leukemia cells and 1000 to 10000 nM in experiment [1].

With `CNc1cc2nc(N)c(-c3cccc(NS(=O)(=O)c4cc(Cl)cc(CO)c4Cl)c3F)cc2cn1` [Example 171], the IC50 (in the experiment on CCRF-CEM leukemia cells; in experiment [1]) was not above 100 nM each time.

As for `CNc1cc2ncc(-c3cccc(NS(=O)(=O)c4cc(Cl)cc(CO)c4Cl)c3F)cc2cn1` [Example 4, 2,5-dichloro-N-(2-fluoro-3-(7-(methylamino)-1,6-naphthyridin-3-yl)phenyl)-3-(hydroxymethyl)benzenesulfonamide], the IC50 against GCN2 kinase was not above 100 nM; on PERK kinase it was not above 100 nM; with CCRF-CEM leukemia cells it was 1000 to 10000 nM; in experiment [1], not above 100 nM.

On to `CNc1cc2nc(C)c(-c3cc(NS(=O)(=O)c4cc(Cl)cnc4OC)c(F)cc3F)cc2cn1` [Example 5, 5-chloro-N-(2,4-difluoro-5-(2-methyl-7-(methylamino)-1,6-naphthyridin-3-yl)phenyl)-2-methoxypyridine-3-sulfonamide], for which the IC50 at GCN2 kinase lay in the range of 100 to 500 nM; at PERK kinase it was 500 to 1000 nM.

On to `CNc1ncc2cc(-c3cc(NS(=O)(=O)c4cc(Cl)cnc4OC)c(F)cc3C)c(NC)nc2n1` [Example 10], for which the values for the IC50 against GCN2 kinase and against PERK kinase were 500 to 1000 nM and 1000 to 10000 nM, respectively.

As to `CNc1nc2nc(NC(C)=O)ncc2cc1-c1cc(F)cc(NS(=O)(=O)c2cc(Cl)cnc2OC)c1` [Example 164], the IC50 on GCN2 kinase is not above 100 nM; at PERK kinase it was 100 to 500 nM; in the experiment with CCRF-CEM leukemia cells it was 100 to 500 nM; in experiment [1] it was 1000 to 10000 nM.

Consider `CNc1ncc2cc(-c3cccc(NS(=O)(=O)c4cc(Br)cnc4OC)c3F)c(NC)nc2n1` [Example 169], for which the values for the IC50 against GCN2 kinase and against PERK kinase were not above 100 nM and 100 to 500 nM, respectively.

On to `COc1ncc(Cl)cc1S(=O)(=O)Nc1ccc(C)c(-c2ccc3cc(N)ncc3c2)c1` [Example 28], for which the IC50 lay within 1000 to 10000 nM against GCN2 kinase and 100 to 500 nM on PERK kinase.

Turning to `CNc1ncc2cc(-c3cccc(NS(=O)(=O)c4cc(OC)ccc4Cl)c3F)c(NC)nc2n1` [Example 168], the IC50 against GCN2 kinase was not above 100 nM; against PERK kinase, not above 100 nM; in the experiment with CCRF-CEM leukemia cells it was 100 to 500 nM; in experiment [1], 1000 to 10000 nM.

As to `CNc1ncc2cc(-c3cccc(NS(=O)(=O)c4cc(Cl)cnc4OC)c3C)ccc2n1` [Example 52], the IC50 against GCN2 kinase and against PERK kinase was 100 to 500 nM each time.

For the compound `CNc1ncc2cc(-c3cc(F)cc(NS(=O)(=O)c4cc(Cl)cnc4OC)c3)c(NC[C@H](C)OC)nc2n1` [Example 108], the IC50 at GCN2 kinase lay within 500 to 1000 nM; against PERK kinase, 1000 to 10000 nM.

Turning to `COc1nc2nc(N)ncc2cc1-c1cccc(NS(=O)(=O)c2cc(Cl)cnc2OC)c1F` [Example 165], the half-inhibitory concentration (IC50) against GCN2 kinase was not above 100 nM; at PERK kinase, not above 100 nM; in the experiment on CCRF-CEM leukemia cells it was not above 100 nM; in experiment [1], 1000 to 10000 nM.

Turning to `CNc1ncc2cc(-c3cccc(NS(=O)(=O)c4cc(F)cc(CO)c4F)c3F)c(NC)nc2n1` [Example 178], the IC50 against GCN2 kinase is not above 100 nM; at PERK kinase it was 100 to 500 nM; with CCRF-CEM leukemia cells, not above 100 nM; in experiment [1], 1000 to 10000 nM.

Consider `CNc1ncc2cc(-c3cc(NS(=O)(=O)c4cc(Cl)cnc4OC)ccc3Cl)ccc2n1` [Example 69], for which the IC50 against GCN2 kinase was 100 to 500 nM; against PERK kinase, not above 100 nM.

In the case of `CNc1ncc2cc(-c3cc(NS(=O)(=O)c4cc(Cl)cnc4OC)ccc3OC)ccc2n1` [Example 81], the IC50 at GCN2 kinase and at PERK kinase was 1000 to 10000 nM throughout.

On to `COc1cc(OC)c(S(=O)(=O)Nc2cccc(-c3cc4cnc(N)nc4nc3OC)c2F)cc1Cl` [Example 126], for which the IC50 on GCN2 kinase lay in the range of 1000 to 10000 nM; against PERK kinase, 500 to 1000 nM.

As for `CNc1nc2nc(N)ncc2cc1-c1ccnc(NS(=O)(=O)c2cc(Cl)cnc2OC)c1F` [Example 155], the 50% inhibitory concentration (IC50) at GCN2 kinase and against PERK kinase was 100 to 500 nM in each case.

As to `CNc1ncc2cc(-c3cc(NS(=O)(=O)c4cncc(Cl)c4)c(F)cc3C)c(C)nc2n1` [Example 42], the IC50 against GCN2 kinase and at PERK kinase was 1000 to 10000 nM in each case.

Regarding `CNc1ncc2cc(-c3cccc(NS(=O)(=O)c4cccnc4OC)c3F)c(NC)nc2n1` [Example 156], the half-inhibitory concentration (IC50) against GCN2 kinase is 100 to 500 nM; at PERK kinase it was 500 to 1000 nM.

The values are drawn from patent publication US11912668B2, “GCN2 and perk kinase inhibitors and methods of use thereof” (Deciphera Pharmaceuticals, LLC, priority 2020, dated 2024).
